This note sets out measurements from patent US12564580B2, “Mitochondria-targeted isoketal/isolevuglandin scavengers and uses thereof” (Vanderbilt University, priority 2020, dated 2026).

In one data set the test system is aortic superoxide. As to the kind of experiment: Aortic superoxide by HPLC (mitoSOX, DHE) in angiotensin II-infused mice. The data set is classed as in vivo, mouse. The procedure: (§1) FIGS. 12A-D show the effect of mito2HOBA supplementation on mitochondrial superoxide (A), vascular superoxide (B), endothelial nitric oxide (C) and endothelial-dependent relaxation (D) in angiotensin II-infused mice. Mitochondrial and vascular O2⋅ was measured by mitochondria-targeted superoxide probe mitoSOX (1 μM) or untargeted superoxide probe DHE (50 μM) using HPLC.46 Endothelial nitric oxide was analyzed by NO spin trap Fe(DETC)2 and ESR.47 C57B1/6J mice were infused with Ang II and mito2HOBA was provided in the drinking water (0.1 g/L). […] Results are mean±SEM. *P<0.01 vs Sham, **P<0.01 vs Ang II (n=6).
Mouse aortic segments were loaded with DHE (50 μM) or mitochondria-targeted mitoSOX (1 μM) in KHB buffer by 30-minute incubation in a tissue culture incubator at 37° C. […] The tissue homogenate was passed through a 0.22 μm syringe filter and methanol filtrates were analyzed by HPLC according to previously published protocols. The superoxide specific product 2-hydroxyethidium was detected using a C-18 reverse-phase column (Nucleosil 250 to 4.5 mm) and a mobile phase containing 0.1% trifluoroacetic acid and an acetonitrile gradient (from 37% to 47%) at a flow rate of 0.5 ml/min. 2-Hydroxyethidium was quantified by fluorescence detector using an emission wavelength of 580 nm and an excitation of 480 nm as described previously.

A further data set deals with mPTP. Format: in vivo. The following applies: treatment of Ang II-infused mice with mito2HOBA.
For data set [1], the system named is kidney mitochondria. As to the kind of experiment: Respiration of kidney mitochondria from angiotensin II-infused mice (respiratory control ratio). The data set is classed as in vivo, mouse. The following applies: Ang II plus mito2HOBA. On the procedure:
(§2) FIGS. 13A-B show mito2HOBA reduces mPTP opening and prevents mitochondrial dysfunc¬tion. C57B1/6J mice were infused with Ang II ([…]) and mito2HOBA in the drinking water (0.1 g/L). Following 14 days of Ang II infusion the animals were sacrificed and kidneys were isolated for mitochondrial studies. Addition of CaCl2 to mitochondria above Ca2+ retention capacity led to mPTP opening and mitochondria swelling. 71 Mitochondria isolated from Ang II-infused mice had significant reduction in Ca2+ capacity due to increased mPTP opening and CypD inhibitor Cyclosporine A (CsA) rescued Ca2+ retention capacity (A). Respiratory control ratio (State 3/State 4) was measured in isolated kidney mitochondria with glutamate and malate (B). Control level is 100%. (C) Renal ATP was measured in freshly isolated tissue by luciferase-based luminescent assay. 72 Results are mean±SEM. *P<0.01 vs Sham, **P<0.01 vs Angiotensin II (n=5).
The following respiration medium was used (in mM): 125 mM KCl, 10 mM MOPS (pH 7.2), 2 mM MgCl2, 2 mM KH2PO4, 10 mM NaCl, 1 mM EGTA, 0.7 mM CaCl2, 10 mM glutamate and 2 mM malate. […] Respiratory control ratio was calculated as the rate ratio State 3 to State 4, where State 4 is the rate after ADP phosphorylation.

Data set [2] relates to kidney mitochondria. As to the kind of experiment: Respiration of kidney mitochondria isolated from mito2HOBA and LPS treated mice. Format: in vivo, mouse.
Experimental: To study the mitochondrial function, the combination of glutamate and malate (GM) or succinate was used as substrates. Since glutamate can be converted via transamination to α-ketoglutarate and further to succinate, the present inventors used complex II inhibitor malonate to define specific complex I respiration. The basal respiration (1) was measured in mitochondria supplemented with respiratory substrates. Then ADP was added to measure the coupled respiration (2). The proton leak (3) was determined after addition of complex V inhibitor oligomycin A. The uncoupled respiration (4) was measured after supplementation with CCCP. Finally, antimycin A plus rotenone were added to assess non-mitochondrial respiration (5) as described previously [32].
In order to define specific alterations in the mitochondrial respiration in LPS model of sepsis and test the potential protection by mito2HOBA the present inventors adopted the Seahorse protocol for mitochondrial studies in the presence of mitochondrial substrates Glutamate+Malate (GM) or succinate. To define the specific role of complex I mediated respiration the present inventors performed measurements in the presence of complex II inhibitor malonate (5 mM). The present inventors measured basal respiration in the presence of mitochondria plus substrates, coupled respiration after addition of ADP (2 mM), proton leak following addition of oligomycin A (2.5 μM) uncoupled respiration after supplementation of CCCP (1 μM) and non-mitochondrial respiration with mixture of antimycin A and rotenone (1 μM) Mitochondrial studies where independently verified in two labs using Oroboros O2k high-resolution respirometry and Fluorescence Lifetime Micro Oxygen Monitoring System (Instech Laboratories, Inc). Kidney mitochondria were isolated from control sham mice, LPS-injected mice (25 μg/g, 16 hours post-injection), mito2HOBA supplemented mice (0.1 g/Liter drinking water, 4 days), or mito2HOBA plus LPS (0.1 g/Liter mito2HOBA for 3 days plus LPS injection).
The subject of a further data set is renal ATP. As to the kind of experiment: ATP levels in kidney tissue of angiotensin II-infused mice. Format: in vivo, mouse. The settings on record: Ang II plus mito2HOBA. The procedure: as §2
ATP concentration in the kidney tissue was measured by luminescent ATP detection assay kit (Abcam; Cat #ab113849). Luminescence signals were read using a Biotek Synergy H1 plate reader. Luminescence units were calculated as μmol/mg protein based on the ATP calibration curve and protein concentration measured by the Bradford method.

The subject of data set [3] is kidney (renal cortex and medulla). As to the kind of experiment: Kidney histological analyses in LPS model.
Experimental: Three months old C57BL/6J mice (25-28 g) were supplemented with mito2HOBA (drinking water, 0.1 g/L) for 72 hours prior to LPS injection (25 μg/g). […] (C) Histopathological scores of renal injuries as described in methods section. […] Data are mean±STD *P<0.01 vs LPS (n=6), *P<0.01 vs LPS (n=10).
FIGS. 6A-H show histological analysis of cellular injury in kidneys of control, mito2HOBA supplemented, LPS-injected and LPS+mito2HOBA-treated mice. Representative sections from control mice show normal glomeruli (g), proximal tubules (P), and distal tubules (*) in the cortex (A) and medulla (B).
Kidneys were harvested from mice and placed immediately in 10% formalin. Following fixation, kidneys were washed with saline, placed in 70% ethanol, and processed in the following sequence: 70% ethanol; 80% ethanol; 95% ethanol; 100% ethanol; 100% xylene. Then kidneys were embedded in POLY/Fin paraffin (ThermoFisher). Five-μm sections were cut using a Leitz 1512 microtome and were mounted on glass slides. Sections were stained with hematoxylin and eosin and were viewed using an Olympus IX70 microscope. Images were captured with a Jenoptix Progress C12 digital camera. Histopathological scores of kidneys were measured as follows: (0) No tubular injury; (1) <10% tubules injured; (2) 10-25% tubules injured; (3) 25-50% tubules injured; (4) 50-75% tubules injured; (5) >75% tubules injured.
In the next data set the test system is endothelial nitric oxide. Kind of data set: Aortic nitric oxide by ESR and Fe(DETC)2 in angiotensin II-infused mice. Format: in vivo, mouse. The settings on record: Ang II plus mito2HOBA. On the procedure: as §1
Nitric oxide production in aortas was quantified by ESR and colloid Fe(DETC)2 as we have described previously. All ESR samples were placed in quartz Dewar (Corning, New York, NY) filled with liquid nitrogen. ESR spectra were recorded using an EMX ESR spectrometer (Bruker Biospin Corp., Billerica, MA) and a super high Q microwave cavity. The ESR settings were as follows: field sweep, 160 Gauss; microwave frequency, 9.42 GHz; microwave power, 10 milliwatts; modulation amplitude, 3 Gauss; scan time, […]; time constant, 5.2 sec; and receiver gain, 60 dB (n=4 scans).

For data set [4], the system named is human aortic endothelial cells (HAEC). Kind of data set: Mitochondrial superoxide in human aortic endothelial cells stimulated with angiotensin II plus TNFα (mitoSOX HPLC). Format: cell-based. The settings on record: 50 nM, angiotensin II plus TNFα for 4-hours. The procedure:
FIGS. 9A and B show the effect of mito2HOBA on mitochondrial superoxide and cardiolipin oxidation in human aortic endothelial cells induced by angiotensin II plus TNFα. (A) Mitochondrial superoxide was measured by HPLC analysis of mitoSOX-superoxide specific product, mito-2-hydroxyethidium (Mito-2OH-Et+). […] (B) Cardiolipin oxidation induced by Angiotensin II+TNFα measured my LC/MS. […] Data are mean±SEM. *P<0.01 vs Control, **P<0.01 vs Angiotensin II+TNFα (n=4).
Human aortic endothelial cells (HAEC) were purchased from Lonza (Chicago, IL) and cultured in EGM-2 medium supplemented with 2% FBS but without antibiotics. On the day before the study, the FBS concentration was reduced to 1%.
We tested if mito2HOBA reduces mitochondrial oxidative stress in human aortic endothelial cells (HAEC) stimulated with angiotensin II plus TNFα for 4-hours (FIG. 9). Indeed, supplementation of HAEC with mito2HOBA (50 nM) reduced mitochondrial superoxide production stimulated by TNF[…] and Ang II as measured by accumulation of specific superoxide-MitoSOX product, 2-OH-Mito-Ethidium.

The nature of data set [5]: Tolerability in animal experiments. The data set is classed as in vivo. The following applies: doses from 0.1-0.3 g/L in drinking water. An excerpt:
Mito2HOBA is a water-soluble compound which can be supplied in the media and provided to animals in the drinking water.

Setting [6] is: LPS 25 μg/g plus mito2HOBA 0.1 g/L.
[7] abbreviates: mito2HOBA alone, 0.1 g/L drinking water, 4 days.
Where [8] appears, read: LPS plus mito2HOBA vs LPS alone.

`NCc1ccc(OCCCC[P+](c2ccccc2)(c2ccccc2)c2ccccc2)cc1O` [mito2HOBA]: in the data set on aortic superoxide (DHE, % compared to Sham control, Ang II plus mito2HOBA (Ang II alone 217%)), the aortic cellular superoxide is 152%. For the same molecule, the “increase in aortic mitochondrial superoxide” value in the data set on aortic superoxide (mitoSOX, Ang II plus mito2HOBA) is “completely prevented”. Also, in the data set with mPTP, the “renal mitochondrial Ca2+-retention capacity” value is “completely prevented decline”. For the same molecule, the “mitochondrial respiration supported by glutamate plus malate” value in the data set with kidney mitochondria [1] is recorded as “preserved”. In the data set on kidney mitochondria [2] (setting [6]), the “LPS-induced impairment of GM-mediated respiration” value is on record as “significantly protected”, the “LPS-induced impairment of complex I-specific oxygen consumption in the presence of GM+malonate” value is “significantly protected”, the mitochondrial protein leak entry is listed as “did not affect” and the succinate mediated respiration entry was “did not affect”. Moreover, in the data set on kidney mitochondria [2] (setting [7]), the “complex I-specific oxygen consumption in the presence of GM+malonate” value is “improved” and the succinate-driven respiration entry is “slightly reduced”. The “decrease in renal ATP levels” value in the data set on renal ATP is “prevented”. Besides, in data set [3] (LPS plus mito2HOBA), the renal cortex injury result is listed as “the cortex appeared normal”. In [3] (setting [8]), the “histopathological scores of renal injuries” value is given as “significant reduction in cellular injury”; the renal medulla injury result is “the extent and degree of injury was less”. In data set [3] (mice supplemented with mito2HOBA without LPS), the “kidney histology, mito2HOBA alone” value is given as “appeared normal”. Further, the endothelial nitric oxide result in the data set on endothelial nitric oxide is “completely prevented the decline”. In addition, the mitochondrial superoxide production entry in data set [4] is given as “reduced”. Moreover, the tolerability entry in data set [5] is given as “well tolerated”.
